Test results as given in EP0871441B1, “DFMO AND TAXOL FOR THE TREATMENT OR PREVENTION OF BREAST CANCER” (Ilex Oncology, Inc., priority 1996, dated 1998).
Where “and” joins values, the source holds several entries; their conditions need not be identical. Equal entries are not always repeated.

What was measured:
MCF-7 cells = details: cited from earlier work
BT-20 = details: BT-20, estrogen-unresponsive; cited from earlier work
ODC = target: T1, ODC (Homo sapiens, UniProt P11926); details: DFMO 5 mM, MCF-7 cells; cited from earlier work
T1 construct: endogenous in cells; host or cells: MCF-7 cells, estrogen-treated
T1 sequence (P11926 1-461): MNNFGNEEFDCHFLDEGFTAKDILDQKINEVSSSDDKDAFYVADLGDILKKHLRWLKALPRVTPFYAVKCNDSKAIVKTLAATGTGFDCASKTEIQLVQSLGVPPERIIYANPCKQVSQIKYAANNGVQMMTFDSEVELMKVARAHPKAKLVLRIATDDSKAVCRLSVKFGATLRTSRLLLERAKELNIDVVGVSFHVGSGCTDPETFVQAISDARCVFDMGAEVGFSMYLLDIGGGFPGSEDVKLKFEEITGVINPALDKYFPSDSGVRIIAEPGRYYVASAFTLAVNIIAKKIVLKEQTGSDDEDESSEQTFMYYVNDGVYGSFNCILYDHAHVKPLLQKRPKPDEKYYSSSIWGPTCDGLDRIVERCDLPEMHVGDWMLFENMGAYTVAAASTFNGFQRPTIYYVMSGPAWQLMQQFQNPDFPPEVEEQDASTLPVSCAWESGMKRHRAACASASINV

MCF-7 human breast tumor = assay: Tumor growth inhibition of MCF-7 mammary carcinoma implanted s.c. in ovariectomized nude mice; type: in vivo
Procedure: Female ovariectomized nude mice are implanted s.c. by trocar with 21 day release 0.25 mg estrogen pellets. The following day the mice are implanted s.c. by trocar fragments of MCF-7 mammary carcinomas harvested from s.c. growing MCF-7 tumors in nude mice hosts. When tumors are approximately 5 mm x 5 mm in size (about twenty days after inoculation), the animals are pair-matched into treatment and control groups, and the estrogen pellets removed. Each group contains 10 tumored mice, each of which is ear-tagged and followed individually throughout the experiment. The administration of drugs or vehicle begins the day the animals are pair-matched (Day 1). The doses, route of drug administration and schedule are selected as appropriate for the study in question. If the MTD dose of an agent is not known, it is determined in an initial dosing experiment in non-tumored mice. Mice are weighed twice weekly, and tumor measurements are taken by calipers twice weekly, starting on Day 1. These tumor measurements are converted to mg tumor weight by a well-known formula, L^2xW/2. The experiment is terminated when control tumors reach a size of 1 gram. […] Tumors are weighed and the mean tumor weight per group is calculated. […] A mean % tumor shrinkage can be calculated from data from the mice in a group that experienced tumor regressions. […]

MCF-7 = details: MCF-7, estrogen-responsive; cited from earlier work
[1] = system: MDA-MB-231 human breast tumor; assay: Tumor growth inhibition of MDA-MB-231 breast tumor implanted s.c. in nude mice; type: in vivo; details: for % Tumor Growth Inhibition: with respect to control
Procedure: The MDA-MB-23 1 human breast tumor cell line is estrogen independent. The cell line cannot be maintained in vitro and so was maintained in vivo in host nude mice. The tumor growth inhibition studies were conducted by transplanting MDA-MB-231 tumor cells from the host nude mouse to the subject and control nude mice of the study. The MDA-MB-231 cell line can be obtained from the American Type Culture Collection as ATCC HTB 26. Nude mice are implanted s.c. by trocar with fragments of MDA-MB-231 human breast tumor cells harvested from s.c. growing tumors in nude mice hosts. When tumors are approximately 5 mm x 5 mm in size (usually about ten to twenty days after inoculation), the animals are pair-matched into treatment and control groups. Each group contains 10 tumored mice, each of which is ear-tagged and followed individually throughout the experiment. The administration of drugs or vehicle begins the day the animals are pair-matched (Day 1). The doses, route of drug administration and schedule are selected as appropriate for the study in question. If the MTD dose of an agent is not known, it is determined in an initial dosing experiment in non-tumored mice. The experiment is usually terminated when control tumors reach a size of 1 g or 2 g for the tumor models. Mice are weighed twice weekly, and tumor measurements are taken by calipers twice weekly, starting on day 1. These tumor measurements are converted to mg tumor weight by a well-known formula, and from these calculated tumor weights, the termination date can be determined. Upon termination, all mice are weighed, sacrificed, and their tumors excised. Tumors are weighed, and the mean tumor weight per group is calculated. In this model, the mean treated tumor weight/mean control tumor weight x 100% (T/C) is subtracted from 100% to give the tumor growth inhibition (TGI) for each group. The final weight of a given tumor is subtracted from its own weight at the start of treatment on day 1. This difference divided by the initial tumor weight is the % shrinkage. A mean % tumor shrinkage can be calculated from data from the mice in a group that experienced regressions. If the tumor completely disappears in a mouse, this is considered a complete regression or complete tumor shrinkage. If desired, mice with partial or total tumor regressions can be kept alive past the termination date to see whether they live to become long term, tumor-free survivors. Statistics are performed on the data using primarily the log rank-value test. In the above procedure, a reduction in the growth, number, size, metastasis and/or reoccurrence of tumor in the animal is deemed a positive response.

T-47D = details: estrogen-responsive; cited from earlier work
[2] = DFMO alone 0.5% in drinking water, p.o., ad libitum
[3] = DFMO alone 3% in drinking water, p.o., ad libitum
[4] = taxol alone 20 mg/kg, i.p., qdx5

4-hydroxytamoxifen
cell growth reduced to (MCF-7 cells; 0.1µM 4-hydroxytamoxifen, remaining growth): 72%

NCCC[C@](N)(C(=O)O)C(F)F (racemic) [DFMO, alpha-difluoromethylornithine]
inhibition of proliferation (BT-20): 50% | proliferation of MCF-7 cells, % of the controls (MCF-7 cells; 0.1 mM DFMO, remaining proliferation): 75% | ODC activity (ODC): fully inhibited | tumor growth inhibition (TGI) with respect to control (MCF-7 human breast tumor; DFMO alone 0.5% wt in drinking water, p.o., ad libitum): 44% | inhibition of proliferation (MCF-7): 80% | Final Tumor Wt. (Mean±SEM) [1, 2]: 1276.3±398.6 | % Tumor Growth Inhibition [1, 2]: 19% and 19.2% | Final Tumor Wt. (Mean±SEM) [1, 3]: 782.7±111.4 | % Tumor Growth Inhibition [1, 3]: 52% and 51.8% | inhibition of proliferation (T-47D): 80%

CC(=O)O[C@H]1C(=O)[C@@]2(C)[C@H]([C@H](OC(=O)c3ccccc3)[C@]3(O)C[C@H](OC(=O)[C@H](O)[C@@H](NC(=O)c4ccccc4)c4ccccc4)C(C)=C1C3(C)C)[C@]1(OC(C)=O)CO[C@@H]1C[C@@H]2O [Taxol]
tumor growth inhibition (TGI) with respect to control (MCF-7 human breast tumor; taxol alone 16 mg/kg, i.p., qdx5): 28% | Final Tumor Wt. (Mean±SEM) [1, 4]: 301.6±72.9 | % Tumor Growth Inhibition [1, 4]: 83.7% | % Tumor Growth Inhibition ([1]; taxol alone 20 mg/kg, i.p., qdx5, listed as taxol): 84%
